In brackets after ≈: the same amount, converted by molar mass. Where a SMILES comes first, the peptide text is derived from it.
Key:
[1] = tested on: M. abscessus clinical isolate MAB13; format: cell-based, M. abscessus subsp. massiliense; conditions: 3 days at 37°C
Protocol: (§1) Briefly, serial dilutions of the AMPs were prepared with potassium phosphate buffer (PPB) from the concentration range of 3.125 to 400 μg/ml and then 50 μl of each dilution were added to each 96-well plate. Colonies of the isolate were suspended and then further diluted in Mueller-Hinton broth to obtain a final concentration of 1×10^3 CFU/ml (optimized according to the available AMP stock concentration). Fifty microliters of this inoculum were added to each well of the plates. The plates were incubated for 3 days at 37°C. Plain media and bacterial suspensions without AMPs were used as negative and positive controls. The MIC values were read and recorded. All assays were performed in duplicate and two independent experiments.
(§2) For the in vitro antimicrobial susceptibility, the same protocol as described above was used. The culture plates were further incubated up to 3 days at 37°C. The MIC values were read and recorded.

[2] = tested on: M. abscessus clinical isolate MAB02; format: cell-based, M. abscessus subsp. abscessus; conditions: 3 days at 37°C
Protocol: as §1, §2

[3] = tested on: M. abscessus clinical isolate MAB06; format: cell-based, M. abscessus subsp. abscessus; conditions: 3 days at 37°C
Protocol: as §1, §2

[4] = tested on: human red blood cells (RBCs); assay: Hemolytic toxicity test; format: cell-based; conditions: for Hemolytic activities (%hemolysis): human RBCs, 1 h at 37°C, mean±SD of duplicates, two independent experiments
Protocol: For the hemolytic toxicity test, red blood cells (RBCs) from fresh blood samples of healthy volunteers were obtained by centrifugation at 1,000 rpm for 5 min. The cells were washed three times with sterile phosphate buffered saline (PBS) and adjusted into 1×10^8 cells/ml. AMPs were diluted with PPB in ranging from 6.25 to 400 μg/ml. Fifty microliters of the RBC suspensions and 50 μl of AMP solutions were added to 1.5 ml sterile microtubes, incubated for 1 h at 37°C and then centrifuged at 1,000 rpm for 5 min. The supernatants were transferred to new 96-well microtiter plates for measurement of the absorbance at 540 nm using a microplate reader. RBC suspensions treated with 2% (v/v) Triton X-100 and PBS solution were used as positive and negative controls. The percentages of hemolysis were calculated using the following formula: % of RBC lysis = 100 × [(Test—PBS) / (Positive control—PBS)]. All assays were performed in duplicate and two independent experiments.

[5] = tested on: M. abscessus clinical isolate MAB04; assay: In vitro antimicrobial susceptibility of potential AMPs, broth microdilution, 3 days; format: cell-based, M. abscessus subsp. abscessus; conditions: 3 days at 37°C
Protocol: as §1, §2

[6] = tested on: M. abscessus clinical isolate MAB09; assay: as above; format: cell-based, M. abscessus subsp. abscessus; conditions: 3 days at 37°C
Protocol: as §1, §2

[7] = tested on: M. abscessus clinical isolate MAB01; assay: as above; format: cell-based, M. abscessus subsp. abscessus; conditions: 3 days at 37°C
Protocol: as §1, §2

[8] = tested on: M. abscessus clinical isolate MAB10; assay: as above; format: cell-based, M. abscessus subsp. abscessus; conditions: 3 days at 37°C
Protocol: as §1, §2

[9] = tested on: M. abscessus clinical isolate MAB07; assay: as above; format: cell-based, M. abscessus subsp. abscessus; conditions: 3 days at 37°C
Protocol: as §1, §2

[10] = tested on: M. abscessus clinical isolate MAB08; assay: as above; format: cell-based, M. abscessus subsp. abscessus; conditions: 3 days at 37°C
Protocol: as §1, §2

[11] = tested on: M. abscessus clinical isolate MAB03; assay: as above; format: cell-based, M. abscessus subsp. abscessus; conditions: 3 days at 37°C
Protocol: as §1, §2

[12] = tested on: M. abscessus clinical isolate MAB11; assay: as above; format: cell-based, M. abscessus subsp. abscessus; conditions: 3 days at 37°C
Protocol: as §1, §2

[13] = tested on: M. abscessus clinical isolate MAB05; assay: as above; format: cell-based, M. abscessus subsp. abscessus; conditions: 3 days at 37°C
Protocol: as §1, §2

[14] = tested on: sixteen clinical Mab isolates; assay: 24-hour bactericidal activity assay, summary over isolates; format: cell-based, Mycobacterium abscessus; conditions: majority of the tested strains (10/16 isolates); equivalent of <50 μg/ml
Protocol: as §1
Potential AMPs from the screening assays were subjected to determine the 24-hour bactericidal activity assays (corresponding to the common time of administration) with sixteen clinical Mab isolates using the protocol as described above. To observe the early antimicrobial activities, the plates were incubated for 24 h at 37°C. The samples from each well were further diluted in 0.05% Tween 80 and inoculated on Mueller-Hinton agar. After incubation for 3 days at 37°C, the colony-forming units (CFUs) were counted and calculated for the percentage of killing using the following formula: % killing = 1 - (CFU sample/ CFU control) ×100.

[15] = tested on: clinical isolates of M. abscessus; assay: In vitro susceptibility of potential AMPs, 3 days, summary over isolates; format: cell-based, Mycobacterium abscessus; conditions: isolates MAB01 and MAB03
Protocol: as §1, §2

[16] = tested on: human peripheral blood mononuclear cells (PBMCs); assay: PBMC toxicity, trypan blue exclusion assay; format: cell-based; conditions: 1 h at 37°C, mean±SD of duplicates, two independent experiments
Protocol: For the toxicity of the potential AMPs to human peripheral blood mononuclear cells (PBMCs), the trypan blue exclusion assay was used. Fresh human PBMCs were prepared from blood samples of healthy volunteers using the Ficoll density gradient technique. The cells were centrifuged at 1,800 rpm for 20 min at 20°C and washed three times with PBS and adjusted with RPMI-1640 medium into 6.25×10^5 cells/ml. Fifty microliters of PBMC suspension and 50 μl of AMP solutions (6.25–400 μg/ml) were added to the 96-well microtiter plates and incubated for 1 h at 37°C. Then, 20 μl of the samples were mixed with 20 μl of 0.4% (w/v) trypan blue solution (0.81% NaCl and 0.06% (w/v) dibasic potassium phosphate) in microtubes and incubated for 3 min at room temperature. The PBMC suspensions treated with PBS were used as negative controls. PBMCs were counted using a dual-chamber hemocytometer under a light microscope. Viable and non-viable cells were counted under a microscope and the percentage of viable cells was calculated using the following formula: % of viable cells = [1.00 –([…] / Number of total cells)] × 100. All assays were performed in duplicate with two independent experiments.

[17] = tested on: M. abscessus clinical isolate MAB14; assay: In vitro antimicrobial susceptibility of potential AMPs, broth microdilution, 3 days; format: cell-based, M. abscessus subsp. massiliense; conditions: 3 days at 37°C
Protocol: as §1, §2

[18] = tested on: M. abscessus clinical isolate MAB16; assay: as above; format: cell-based, M. abscessus subsp. massiliense; conditions: 3 days at 37°C
Protocol: as §1, §2

[19] = tested on: M. abscessus clinical isolate MAB12; assay: as above; format: cell-based, M. abscessus subsp. massiliense; conditions: 3 days at 37°C
Protocol: as §1, §2

[20] = tested on: M. abscessus clinical isolate MAB15; assay: as above; format: cell-based, M. abscessus subsp. massiliense; conditions: 3 days at 37°C
Protocol: as §1, §2

[21] = tested on: Mab ATCC19977 strain; format: cell-based, Mycobacterium abscessus
Protocol: as §1

`CC(C)C[C@H](NC(=O)[C@H](CCCCN)NC(=O)[C@H](CC(C)C)NC(=O)[C@H](CC(C)C)NC(=O)[C@H](CC(C)C)NC(=O)[C@H](CC(C)C)NC(=O)[C@H](CC(C)C)NC(=O)[C@H](CCCCN)NC(=O)[C@H](CC(C)C)NC(=O)[C@@H](N)CCCCN)C(=O)O` [KLK1] (H-KLKLLLLLKL-OH) was tested, and the “Antimicrobial peptides against M. abscessus isolates, MIC value” (“Antimicrobial peptides” for short) [1] was greater than 400 µg/mL, the “Antimicrobial peptides” value [2] was greater than 400 µg/mL and the “Antimicrobial peptides” value [3] was greater than 400 µg/mL. The “Hemolytic activities (%hemolysis)” value ([4]; 6.25 µg/mL) was 0.7±0.50%, the “Hemolytic activities (%hemolysis)” value ([4]; 12.5 µg/mL) was 4.93±2.49% and the “Hemolytic activities (%hemolysis)” value ([4]; 25 µg/mL) was 8.27±1.74%. The “Hemolytic activities (%hemolysis)” value ([4]; 50 µg/mL) was 12.15±0.25%, the “Hemolytic activities (%hemolysis)” value ([4]; 100 µg/mL) was 15.85±1.49% and the “Hemolytic activities (%hemolysis)” value ([4]; 200 µg/mL) was 18.13±0.25%. The “Hemolytic activities (%hemolysis)” value ([4]; 400 µg/mL) was 22.18±1.99%, the “hemolysis at the MICs level” value ([4]; at the MICs level, single figure of the abstract) was 10.21% and the “Antimicrobial peptides” value [5] was greater than 400 µg/mL. For the same compound, the “Antimicrobial peptides” value [6] was greater than 400 µg/mL, the “Antimicrobial peptides” value [7] was 25 µg/mL and the “Antimicrobial peptides” value [8] was greater than 400 µg/mL. For the same compound, the “Antimicrobial peptides” value [9] was greater than 400 µg/mL, the “Antimicrobial peptides” value [10] was greater than 400 µg/mL and the “Antimicrobial peptides” value [11] was 50 µg/mL. For the same compound, the “Antimicrobial peptides” value [12] was greater than 400 µg/mL, the “Antimicrobial peptides” value [13] was greater than 400 µg/mL and the “MIC with ~99% killed within 24 h” value [14] was less than 41.85 µM. For the same compound, the “MIC values after 3 days” value [15] was 20.93 to 41.85 µM, the “Viable cells of PBMCs (% viable cells)” value ([16]; 6.25 µg/mL) was 102.52±5.04% and the “Viable cells of PBMCs (% viable cells)” value ([16]; 12.5 µg/mL) was 100.00±2.95%. The “Viable cells of PBMCs (% viable cells)” value ([16]; 25 µg/mL) was 92.70±4.41%, the “Viable cells of PBMCs (% viable cells)” value ([16]; 50 µg/mL) was 94.34±2.80% and the “Viable cells of PBMCs (% viable cells)” value ([16]; 100 µg/mL) was 91.68±8.42%. The “Viable cells of PBMCs (% viable cells)” value ([16]; 200 µg/mL) was 65.81±4.51%, the “Viable cells of PBMCs (% viable cells)” value ([16]; 400 µg/mL) was 44.62±7.22% and the “Antimicrobial peptides” value [17] was greater than 400 µg/mL. The “Antimicrobial peptides” value [18] was greater than 400 µg/mL, the “Antimicrobial peptides” value [19] was greater than 400 µg/mL and the “Antimicrobial peptides” value [20] was greater than 400 µg/mL. The MIC values [21] was 400 µg/mL (≈ 335 µM).

From article PMC8592419 (PLoS ONE, 2021)
